The text below walks through data of ChEMBL document CHEMBL5385867, “2-Phenoxy-3, 4'-bipyridine derivatives inhibit AURKB-dependent mitotic processes by disrupting its localization” (Eur J Med Chem, 2023).

In one test the target is Tubulin (Homo sapiens) (UniProt P68371+Q9H4B7+P0DPH7+P68366+Q13509+Q71U36+P04350+Q3ZCM7+P07437+P68363+Q9BQE3+Q6PEY2+Q13885+Q9BVA1+Q9BUF5). Description: Stabilization of microtubule in human RPE-MYC cells transfected with BCL2 assessed as misaligned chromosomes in metaphase cells at 50 nM measured after 24 hrs by immunofluorescence staining based analysis. It is filed as cell-based.

Test [1] in a line: Induction of mitotic arrest in human RPE-MYC cells transfected with BCL2 assessed as mitotic index at 50 nM measured after 24 hrs by DAPI staining based bright field microscopic analysis (reference value: 3.5%). The format is functional.
Test [2] has as its target T1, Aurora kinase A (Homo sapiens) (UniProt O14965).
T1 sequence (whole entry): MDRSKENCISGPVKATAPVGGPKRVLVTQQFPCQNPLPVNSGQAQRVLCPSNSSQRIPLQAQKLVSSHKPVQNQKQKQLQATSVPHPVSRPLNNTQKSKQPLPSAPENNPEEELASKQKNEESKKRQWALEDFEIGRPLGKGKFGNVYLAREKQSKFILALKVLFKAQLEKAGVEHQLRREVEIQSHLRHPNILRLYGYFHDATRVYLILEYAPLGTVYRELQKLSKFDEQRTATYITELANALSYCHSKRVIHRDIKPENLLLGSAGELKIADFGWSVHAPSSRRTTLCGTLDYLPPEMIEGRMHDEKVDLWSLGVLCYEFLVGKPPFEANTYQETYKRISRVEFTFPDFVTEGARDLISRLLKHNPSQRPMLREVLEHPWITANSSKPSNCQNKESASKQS
Description: Inhibition of Aurora kinase A in human RPE-MYC cells transfected with BCL2 assessed as inhibition of protein autophosphorylation at Thr288 residue at 2.5 nM measured after 6 hrs by immunofluorescence staining based analysis. It is filed as cell-based.

Test [3] addresses Aurora kinase B (Homo sapiens) (UniProt Q96GD4). The experiment in a line: Disruption of AURKB localization during anaphase in human NCI-H23 cells at 2.5 nM measured after 24 hrs by immunofluorescence staining based analysis. The format is cell-based.
Test [4] shares this target. Description: Disruption of AURKB localization in human RPE-MYC cells transfected with BCL2 assessed as accumulation of polyploid cells with multilobular nuclei at 2.5 nM measured after 48 hrs by immunofluorescence staining based analysis. The format is cell-based.
Test [5] has the same target. The experiment in a line: Inhibition of Aurora kinase B in human RPE-MYC cells transfected with BCL2 assessed as inhibition of histone H3 phosphorylation at Ser10 residue at 2.5 nM measured after 6 hrs by immunofluorescence staining based analysis. The format is cell-based.
Test [6] shares this target. The experiment in a line: Disruption of AURKB localization in human RPE-MYC cells transfected with BCL2 assessed as misaligned chromosomes in metaphase-like cells at 2.5 nM measured after 24 hrs by immunofluorescence staining based analysis. The format is cell-based.
Test [7] is described as follows: Induction of mitotic arrest in human RPE-MYC cells transfected with BCL2 assessed as mitotic index at 2.5 nM measured after 24 hrs by DAPI staining based bright field microscopic analysis (reference value: 3.5%). The format is functional.
The target of test [8] is Aurora kinase B (Homo sapiens) (UniProt Q96GD4). The experiment in a line: Disruption of AURKB localization in human RPE-MYC cells transfected with BCL2 assessed as lagging chromosomes in anaphase cells at 2.5 nM measured after 24 hrs by immunofluorescence staining based analysis. It is filed as cell-based.
Aurora kinase B (Homo sapiens), sequence (Q96GD4 whole entry): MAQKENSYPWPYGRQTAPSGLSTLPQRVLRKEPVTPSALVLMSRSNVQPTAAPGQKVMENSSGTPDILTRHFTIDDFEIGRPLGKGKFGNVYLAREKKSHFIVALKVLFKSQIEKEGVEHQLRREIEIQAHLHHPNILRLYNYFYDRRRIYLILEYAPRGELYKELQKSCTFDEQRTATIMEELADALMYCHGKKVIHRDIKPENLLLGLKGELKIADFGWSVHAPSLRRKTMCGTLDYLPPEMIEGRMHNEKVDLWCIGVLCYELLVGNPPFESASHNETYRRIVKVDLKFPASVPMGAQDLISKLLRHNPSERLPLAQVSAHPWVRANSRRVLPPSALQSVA
Test [9] has as its target T1, Aurora kinase A (Homo sapiens). The experiment in a line: Inhibition of Aurora kinase A in human RPE-MYC cells transfected with BCL2 assessed as inhibition of protein autophosphorylation at Thr288 residue at 160 nM measured after 6 hrs by immunofluorescence staining based analysis. The format is cell-based.
Test [10] has the same target. Description: Inhibition of Aurora kinase A in human NCI-H23 cells transfected with BCL2 assessed as inhibition of protein autophosphorylation at Thr288 residue at 2.5 nM measured after 6 hrs by immunofluorescence staining based analysis. It is filed as cell-based.
Test [11] concerns the target Aurora kinase B (Homo sapiens) (UniProt Q96GD4). Description: Inhibition of Aurora kinase B in human NCI-H23 cells transfected with BCL2 assessed as inhibition of histone H3 phosphorylation at Ser10 residue at 2.5 nM measured after 6 hrs by immunofluorescence staining based analysis. The format is cell-based.
Test [12] shares this target. Description: Inhibition of Aurora kinase B in human RPE-MYC cells transfected with BCL2 assessed as inhibition of histone H3 phosphorylation at Ser10 residue at >5 nM measured after 6 hrs by immunofluorescence staining based analysis. The format is cell-based.
Test [13] has as its system RPE. The experiment in a line: Inhibition of actin polymerization in human RPE-MYC cells transfected with BCL2 assessed as lagging chromosomes in anaphase at 2 ug/ml measured after 24 hrs by immunofluorescence staining based analysis. The note with it: dose 2.0 µg/ml. It is filed as cell-based.
The test system of test [14] is RPE. Description: Inhibition of actin polymerization in human RPE-MYC cells transfected with BCL2 assessed as chromosome misalignment in metaphase at 2 ug/ml measured after 24 hrs by immunofluorescence staining based analysis. It is filed as cell-based. The conditions noted are these: dose 2.0 µg/ml.
Test [15] has as its system RPE. The experiment in a line: Inhibition of actin polymerization in human RPE-MYC cells transfected with BCL2 assessed as accumulation of polyploid cells with multilobular nuclei at 2 ug/ml measured after 48 hrs by immunofluorescence staining based analysis. The format is cell-based. The conditions noted are these: dose 2.0 µg/ml.
A short description of test [16]: Induction of mitotic arrest in human RPE-MYC cells transfected with BCL2 assessed as mitotic index at 2 ug/ml measured after 24 hrs by DAPI staining based bright field microscopic analysis (reference value: 3.5%). The conditions noted are these: dose 2 µg/ml. It is filed as functional.

Activity calls are given as the source filed them. The rule behind the calls is not given here.

In the case of `CC(=O)O[C@H]1C(=O)[C@@]2(C)[C@H]([C@H](OC(=O)c3ccccc3)[C@]3(O)C[C@H](OC(=O)[C@H](O)[C@@H](NC(=O)c4ccccc4)c4ccccc4)C(C)=C1C3(C)C)[C@]1(OC(C)=O)CO[C@@H]1C[C@@H]2O` [PACLITAXEL], on Tubulin (Homo sapiens), the result was inactive. The Activity in [1] is reported as 97.3%.
The term inhibition denotes the drop in the measured response relative to a control, in per cent. As to `Cc1csc(-c2nnc(Nc3ccc(Oc4ncccc4-c4ccnc(N)n4)cc3)c3ccccc23)c1` [AMG-900], the inhibition result in [2], in [5], in test [10] and in test [11] was “inactive” each time. The outcome in test [3], in [4], in test [6] and in test [8] was Active. In test [7], the Activity is on record as 7.8%. For the same compound, the inhibition in test [9] turned out to be 100%. The inhibition entry in [12] is “Active”.
As for `C=C1[C@@H](C)[C@H]2[C@H](Cc3ccccc3)NC(=O)[C@]23OC(=O)/C=C/[C@H](O)CCC[C@@H](C)C/C=C/[C@H]3[C@@H]1O` [CYTOCHALASIN B], the inhibition result with RPE [13] and in the test on RPE [14] was “inactive” in each case. Further, the inhibition entry in the test with RPE [15] was “Active”. For the same compound, in test [16], the Activity is listed as 2.7%.
